Assay results published in PubChem BioAssay (NCI).
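The compound was tested at five concentrations on cells cultured in 96-well plates, with a 48-hour exposure period. TGI is the concentration that stops growth completely.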

What was measured:
Assay in all cases: NCI-60 cell line screen, 48 h
HS 578T breast = system: HS 578T breast
M14 melanoma = system: M14 melanoma
MDA-MB-231 breast = system: MDA-MB-231 breast
NCI-H23 lung = system: NCI-H23 lung
OVCAR-3 ovarian = system: OVCAR-3 ovarian
SF-539 CNS = system: SF-539 CNS
SK-MEL-28 melanoma = system: SK-MEL-28 melanoma
SW-620 colon = system: SW-620 colon
T-47D breast = system: T-47D breast
A498 renal = system: A498 renal

Structure (SMILES)	TGI (HS 578T breast)	TGI (M14 melanoma)	TGI (MDA-MB-231 breast)	TGI (NCI-H23 lung)	TGI (OVCAR-3 ovarian)	TGI (SF-539 CNS)	TGI (SK-MEL-28 melanoma)	TGI (SW-620 colon)	TGI (T-47D breast)	TGI (A498 renal)
O=C(O)C(Cc1ccccc1)NCc1c(O)ccc2c(-c3ccccc3)cc(=O)oc12 (stereo unspecified)	> 100 µM	> 100 µM	> 100 µM	> 100 µM	> 100 µM	> 100 µM	> 100 µM	> 100 µM	> 100 µM	
CC(C)(C)C(=O)Nc1c(C=O)ccc2[nH]cnc12		> 100 µM	> 100 µM	> 100 µM	> 100 µM	> 100 µM	> 100 µM	> 100 µM	> 100 µM	> 100 µM
COc1ccccc1NC(=O)C(=O)C(C(=O)c1ccccc1F)C1OC(=O)c2ccccc21 (stereo unspecified)		> 100 µM		57.6 µM		66.1 µM	> 100 µM	> 100 µM		> 100 µM
CCOP(=O)(/C=C/n1cc(C)c(=O)[nH]c1=O)OCC		> 100 µM	> 100 µM	> 100 µM	> 100 µM	> 100 µM	> 100 µM	> 100 µM	> 100 µM	> 100 µM
COC(=O)C1=C(CCCCO[Si](C)(C)C(C)(C)C)NC(=O)N2[C@H](CCOCc3ccccc3)CC[C@@H]12		> 100 µM	> 100 µM	> 100 µM	> 100 µM	> 100 µM	> 100 µM		> 100 µM	> 100 µM
O=C(O)c1c(CC(Cc2ccc3c(c2)CCC3)C(=O)O)ccc2c1CCC2 (stereo unspecified)	> 100 µM	> 100 µM	> 100 µM	> 100 µM	> 100 µM	> 100 µM	> 100 µM	> 100 µM		> 100 µM
O=C1c2ccccc2-c2nc3ccncc3n21				> 100 µM	> 100 µM	> 100 µM	> 100 µM	> 100 µM		
CC(Nc1ccc(Cl)cc1)c1ccncc1 (stereo unspecified)	> 100 µM	> 100 µM		> 100 µM	> 100 µM	> 100 µM	> 100 µM	> 100 µM	> 100 µM	> 100 µM
NC(=O)CCC(N=c1c2ccccc2n(O)c2ccccc12)C(=O)O (stereo unspecified)		> 100 µM		> 100 µM	> 100 µM		89.4 µM	> 100 µM		> 100 µM
C/C(=C1\N=C(c2ccccc2)OC1=O)c1ccccc1	> 100 µM	> 100 µM		> 100 µM	> 100 µM	> 100 µM	> 100 µM	> 100 µM	> 100 µM	> 100 µM
CC1=C(CO)C(=O)OC(C(C)C2CCC3C4CC5OC56C(O)C(N5CC5)=CC(=O)C6(C)C4CCC23C)C1 (stereo unspecified)		24.6 µM		7 µM	11.7 µM	14 µM	31.1 µM	6.4 µM		16.3 µM
N#Cc1nc(CCc2nc(C#N)c(N)o2)oc1N	> 10 µM	> 10 µM	> 10 µM	> 10 µM		> 10 µM	> 10 µM	> 10 µM	> 10 µM	
COP(=O)(OC)OCN(C)CC/C=C(\C)CC/C=C(\C)CCC=C(C)C		28 µM	56.3 µM	34.7 µM	29.9 µM	30.3 µM	32.6 µM	30.4 µM	43.9 µM	> 100 µM
Nc1c(C(=O)c2ccc(Cl)c(Cl)c2)[nH]c(NCc2ccccc2)c1C(=S)Nc1ccccc1		12.6 µM	17.6 µM	41.6 µM	38.5 µM	6.47 µM	18.9 µM	10.1 µM	81.2 µM	31.5 µM
FC1=C2C3CCC(C3)C2C1(F)F (stereo unspecified)		> 100 µM	> 100 µM	> 100 µM	> 100 µM	> 100 µM	> 100 µM	> 100 µM	> 100 µM	> 100 µM
CCC1(O)CC(CCN(Cc2ccccc2)C(=O)OCc2ccccc2)C(OCc2ccccc2)C1O (stereo unspecified)		42.3 µM	87.3 µM	30.4 µM	26.8 µM		36.4 µM	> 100 µM	30.6 µM	
CC(=O)n1[nH]c(=O)n(-c2ccc(Cl)cc2)c1=O		> 100 µM	> 100 µM	> 100 µM	> 100 µM		> 100 µM	> 100 µM	> 100 µM	
COC1/C=C/C(C)C(O)CC(O)/C=C/C(C)C(C(C)C(OC)C(C)CCC(=O)C(C)C(C/C=C/N(C)C=O)OC)OC(=O)/C=C/C=C(\C)CC(OC)CC2=CC(=O)O[C@@H](C(C)C(OC)C1)[C@H]2O (stereo partly specified)	0.0493 µM	< 0.005 µM		0.0437 µM	0.0106 µM	0.0172 µM	0.155 µM	0.267 µM	1.28 µM	0.0164 µM
O=C(CNc1ccccc1C(=O)O)Nn1cnc2ccc(S(=O)(=O)Nc3ccccc3C(=O)O)cc2c1=O	> 100 µM	> 100 µM	> 100 µM	> 100 µM	> 100 µM	> 100 µM	> 100 µM	> 100 µM		
CC(=O)CC1(CBr)Nc2ccc([N+](=O)[O-])cc2NC1=O (stereo unspecified)		> 100 µM	> 100 µM	> 100 µM	> 100 µM	> 100 µM	> 100 µM	> 100 µM	> 100 µM	> 100 µM
